US20070281992A1, “COMBINATION OF GYRASE B INHIBITORS AND PROTEIN SYNTHESIS INHIBITORS AND USES THEREOF” (priority 2006, published 2007)
Where two headings read alike, the source gives them in different places.

What was measured:
[1] = tested on: Methicillin-Resistant Staphylococcus aureus Isolates; experiment: MIC assay (NCCLS broth dilution), MRSA clinical isolates; format: cell-based; conditions: for MIC: Staphylococcus aureus
Method in brief: (§1)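 Staphylococcal isolates and QC strains (S. aureus ATCC 29213, E. faecalis ATCC 29212) tested by NCCLS broth dilution in Mueller Hinton II broth. Agents run as 11 two-fold serial dilutions, with novobiocin combined with tetracycline or minocycline at 2.5:1. Vancomycin was the control.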

[2] = tested on: Staphylococcus aureus 0100 (ATCC 29213); conditions: S. aureus ATCC 29213; accepted quality control range; cited from earlier work
[3] = tested on: Vancomycin-intermediate Staphylococcus epidermidis Isolates; experiment: MIC assay (NCCLS broth dilution), VISE isolates; format: cell-based
Method in brief: as §1

[4] = tested on: Enterococcus faecalis (ATCC 29212); conditions: E. faecalis ATCC 29212; accepted quality control range; cited from earlier work
[5] = tested on: Staphylococcus aureus 0100 (ATCC 29213); experiment: MIC assay, quality control strain S. aureus ATCC 29213; format: cell-based; conditions: ATCC29213, read-out: Minimal Inhibitory Concentration, quality control, S. aureus ATCC 29213, repeat runs 22FEB06-09MAR06, combinations at 2.5:1
Procedure: Antibiotics: novobiocin, tetracycline, minocycline, oxacillin, and vancomycin were all purchased from Sigma-Aldrich. Linezolid was obtained from Pfizer, Inc. Novobiocin/tetracycline and novobiocin/minocycline were tested in a 2.5:1 ratio to mimic the serum levels. (Vavra, J. J., 1967, Development of resistance to novobiocin, tetracycline, and novobiocin-tetracycline combinations in Staphylococcus aureus populations, J. Bacteriol 93(3):801). Compounds were tested across a concentration range consisting of 11 two-fold serial dilutions of test agent.
Stock solutions were prepared in sterile deionized water; novobiocin stock concentration was 1600 μg/mL and all other drugs stock solutions were prepared at 640 μg/mL. The stock solutions were allowed to sit at room temperature for one hour to auto-sterilize prior to use in the test. All compounds were in solution in water. The control agent was vancomycin hydrochloride, Sigma Chemical Lot # 015K0825.
The test organisms for the assay were 52 MSSA, 52 MRSA, 8 VISA, 7 VISE, and 3 LRSA isolates. Quality control strains included Staphylococcus aureus 0100 (ATCC 29213) and Enterococcus faecalis (ATCC 29212).
The MIC assay was performed according to published NCCLS guidelines. (National Committee for Clinical Laboratory Standards, Methods for Dilution Antimicrobial Susceptibility Tests for Bacteria that Grow Aerobically; Approved Standard-Sixth Edition, NCCLS Document M7-A6 [ISBN 1-56238-486-4], NCCLS, 940 West Valley Road, Suite 1400, Wayne, Pa. 19087-1898 USA, 2003). The test medium was Mueller Hinton II Broth for all organisms.

For CN[C@H](CC(C)C)C(=O)N[C@H]1C(=O)N[C@@H](CC(N)=O)C(=O)N[C@H]2C(=O)N[C@H]3C(=O)N[C@H](C(=O)N[C@H](C(=O)O)c4cc(O)cc(O)c4-c4cc3ccc4O)[C@H](O)c3ccc(c(Cl)c3)Oc3cc2cc(c3O[C@@H]2O[C@H](CO)[C@@H](O)[C@H](O)[C@H]2O[C@H]2C[C@](C)(N)[C@H](O)[C@H](C)O2)Oc2ccc(cc2Cl)[C@H]1O [VA, vancomycin], which “MIC Range” value ([1]; 52 MRSA isolates, combinations at 2.5:1, given as NB/partner) is on record?
Its value is “.5 to 2 µg/mL”.

And the MIC ([1]; read-out: Minimal Inhibitory Concentration, MRSA isolate 757, 24FEB06)?
The MIC was 1 µg/mL.

What about the MIC ([1]; read-out: Minimal Inhibitory Concentration, MRSA isolate 758, 03MAR06) of the same molecule?
The MIC was 1 µg/mL.

And the MIC ([1]; read-out: Minimal Inhibitory Concentration, MRSA isolate 758, 24FEB06)?
The MIC was 1 µg/mL.

And the MIC ([1]; read-out: Minimal Inhibitory Concentration, MRSA isolate 760, 03MAR06)?
Its MIC is 1 µg/mL.

What about the MIC ([1]; read-out: Minimal Inhibitory Concentration, MRSA isolate 760, 24FEB06) of the same molecule?
Its MIC is 1 µg/mL.

What about the MIC ([1]; read-out: Minimal Inhibitory Concentration, MRSA isolate 763, 22FEB06) of the same molecule?
Its MIC is 1 µg/mL.

What about the MIC ([1]; read-out: Minimal Inhibitory Concentration, MRSA isolate 765, 22FEB06) of the same molecule?
The MIC was 0.5 µg/mL.

And the MIC ([1]; read-out: Minimal Inhibitory Concentration, MRSA isolate 766, 22FEB06)?
The MIC was 0.5 µg/mL.

What about the MIC ([1]; read-out: Minimal Inhibitory Concentration, MRSA isolate 767, 22FEB06) of the same molecule?
The MIC was 0.5 µg/mL.

What about the MIC ([1]; read-out: Minimal Inhibitory Concentration, MRSA isolate 768, 22FEB06) of the same molecule?
The MIC was 0.5 µg/mL.

And the MIC ([1]; read-out: Minimal Inhibitory Concentration, MRSA isolate 769, 22FEB06)?
Its MIC is 0.5 µg/mL.

And the MIC ([1]; read-out: Minimal Inhibitory Concentration, MRSA isolate 770, 22FEB06)?
The MIC was 0.5 µg/mL.

And the MIC ([1]; read-out: Minimal Inhibitory Concentration, MRSA isolate 771, 22FEB06)?
The MIC was 1 µg/mL.

And the MIC ([1]; read-out: Minimal Inhibitory Concentration, MRSA isolate 772, 22FEB06)?
The MIC was 0.5 µg/mL.

What about the MIC ([1]; read-out: Minimal Inhibitory Concentration, MRSA isolate 773, 24FEB06) of the same molecule?
Its MIC is 0.5 µg/mL.

What about the MIC ([1]; read-out: Minimal Inhibitory Concentration, MRSA isolate 774, 24FEB06) of the same molecule?
The MIC was 1 µg/mL.

And the MIC ([1]; read-out: Minimal Inhibitory Concentration, MRSA isolate 775, 24FEB06)?
The MIC was 1 µg/mL.

And the MIC ([1]; read-out: Minimal Inhibitory Concentration, MRSA isolate 776, 24FEB06)?
Its MIC is 1 µg/mL.

And the MIC ([1]; read-out: Minimal Inhibitory Concentration, MRSA isolate 777, 24FEB06)?
The MIC was 0.5 µg/mL.

What about the MIC ([1]; read-out: Minimal Inhibitory Concentration, MRSA isolate 778, 24FEB06) of the same molecule?
Its MIC is 1 µg/mL.

And the MIC ([1]; read-out: Minimal Inhibitory Concentration, MRSA isolate 886, 24FEB06)?
The MIC was 1 µg/mL.

And the MIC ([1]; read-out: Minimal Inhibitory Concentration, MRSA isolate 887, 24FEB06)?
The MIC was 0.5 µg/mL.

What about the MIC ([1]; read-out: Minimal Inhibitory Concentration, MRSA isolate 888, 24FEB06) of the same molecule?
The MIC was 1 µg/mL.

And the MIC ([1]; read-out: Minimal Inhibitory Concentration, MRSA isolate 889, 24FEB06)?
Its MIC is 1 µg/mL.

What about the MIC ([1]; read-out: Minimal Inhibitory Concentration, MRSA isolate 1004, 24FEB06) of the same molecule?
Its MIC is 1 µg/mL.

What about the MIC ([1]; read-out: Minimal Inhibitory Concentration, MRSA isolate 1010, 22FEB06) of the same molecule?
The MIC was 0.5 µg/mL.

And the MIC ([1]; read-out: Minimal Inhibitory Concentration, MRSA isolate 1012, 22FEB06)?
Its MIC is 0.5 µg/mL.

What about the MIC ([1]; read-out: Minimal Inhibitory Concentration, MRSA isolate 1013, 22FEB06) of the same molecule?
The MIC was 0.5 µg/mL.

And the MIC ([1]; read-out: Minimal Inhibitory Concentration, MRSA isolate 1014, 22FEB06)?
Its MIC is 0.5 µg/mL.

And the MIC ([1]; read-out: Minimal Inhibitory Concentration, MRSA isolate 1015, 22FEB06)?
Its MIC is 0.5 µg/mL.

And the MIC ([1]; read-out: Minimal Inhibitory Concentration, MRSA isolate 1016, 22FEB06)?
Its MIC is 0.5 µg/mL.

And the MIC ([1]; read-out: Minimal Inhibitory Concentration, MRSA isolate 1017, 22FEB06)?
Its MIC is 0.5 µg/mL.

What about the MIC ([1]; read-out: Minimal Inhibitory Concentration, MRSA isolate 1021, 22FEB06) of the same molecule?
Its MIC is 0.5 µg/mL.

What about the MIC ([1]; read-out: Minimal Inhibitory Concentration, MRSA isolate 1022, 22FEB06) of the same molecule?
Its MIC is 0.5 µg/mL.

And the MIC ([1]; read-out: Minimal Inhibitory Concentration, MRSA isolate 1023, 22FEB06)?
Its MIC is 0.5 µg/mL.

What about the MIC ([1]; read-out: Minimal Inhibitory Concentration, MRSA isolate 1024, 22FEB06) of the same molecule?
Its MIC is 0.5 µg/mL.

What about the MIC ([1]; read-out: Minimal Inhibitory Concentration, MRSA isolate 1025, 22FEB06) of the same molecule?
Its MIC is 1 µg/mL.

What about the MIC ([1]; read-out: Minimal Inhibitory Concentration, MRSA isolate 1135, 22FEB06) of the same molecule?
The MIC was 0.5 µg/mL.

And the MIC ([1]; read-out: Minimal Inhibitory Concentration, MRSA isolate 1136, 22FEB06)?
The MIC was 0.5 µg/mL.

What about the MIC ([1]; read-out: Minimal Inhibitory Concentration, MRSA isolate 1137, 22FEB06) of the same molecule?
The MIC was 0.5 µg/mL.

What about the MIC ([1]; read-out: Minimal Inhibitory Concentration, MRSA isolate 1138, 22FEB06) of the same molecule?
Its MIC is 0.5 µg/mL.

What about the MIC ([1]; read-out: Minimal Inhibitory Concentration, MRSA isolate 1222, 03MAR06) of the same molecule?
The MIC was 1 µg/mL.

What about the MIC ([1]; read-out: Minimal Inhibitory Concentration, MRSA isolate 1222, 24FEB06) of the same molecule?
Its MIC is 1 µg/mL.

And the MIC ([1]; read-out: Minimal Inhibitory Concentration, MRSA isolate 1653, 03MAR06)?
Its MIC is 1 µg/mL.

What about the MIC ([1]; read-out: Minimal Inhibitory Concentration, MRSA isolate 1658, 03MAR06) of the same molecule?
The MIC was 0.5 µg/mL.

And the MIC ([1]; read-out: Minimal Inhibitory Concentration, MRSA isolate 1659, 03MAR06)?
The MIC was 1 µg/mL.

What about the MIC ([1]; read-out: Minimal Inhibitory Concentration, MRSA isolate 1661, 03MAR06) of the same molecule?
The MIC was 1 µg/mL.

What about the MIC ([1]; read-out: Minimal Inhibitory Concentration, MRSA isolate 1729, 03MAR06) of the same molecule?
The MIC was 2 µg/mL.

What about the MIC ([1]; read-out: Minimal Inhibitory Concentration, MRSA isolate 1730, 24FEB06) of the same molecule?
Its MIC is 1 µg/mL.

And the MIC ([1]; read-out: Minimal Inhibitory Concentration, MRSA isolate 2009, 24FEB06)?
Its MIC is 2 µg/mL.

And the MIC ([1]; read-out: Minimal Inhibitory Concentration, MRSA isolate 2010, 24FEB06)?
Its MIC is 0.5 µg/mL.

What about the MIC ([1]; read-out: Minimal Inhibitory Concentration, MRSA isolate 2011, 24FEB06) of the same molecule?
Its MIC is 1 µg/mL.

And the “CLSI QC Range (MIC)” value [2]?
The value was 0.5 to 2 µg/mL.

And the “MIC Range” value ([3]; 4 VISE isolates, combinations at 2.5:1)?
The value was 8 µg/mL.

And the MIC ([3]; Staphylococcus epidermidis, read-out: Minimal Inhibitory Concentration)?
The MIC was 8 µg/mL.

What about the “Minimal Inhibitory Concentration” value ([3]; VISE isolate 2020, 09MAR06) of the same molecule?
The value was 8 µg/mL.

What about the “Minimal Inhibitory Concentration” value ([3]; VISE isolate 2021, 09MAR06) of the same molecule?
The value was 8 µg/mL.

And the “Minimal Inhibitory Concentration” value ([3]; VISE isolate 2023, 03MAR06)?
The value was 8 µg/mL.

And the “CLSI QC Range (MIC)” value [4]?
Its value is 1 to 4 µg/mL.

And the MIC [5]?
Its MIC is 0.5 µg/mL.
